From US20210179578A1, “OX1 ANTAGONISTS” (Heptares Therapeutics Limited, priority 2017, published 2021) come the findings set out here.

The target in one experiment is T1, human OX1 receptor (Homo sapiens, UniProt O43613).
T1 sequence (O43613 1-425): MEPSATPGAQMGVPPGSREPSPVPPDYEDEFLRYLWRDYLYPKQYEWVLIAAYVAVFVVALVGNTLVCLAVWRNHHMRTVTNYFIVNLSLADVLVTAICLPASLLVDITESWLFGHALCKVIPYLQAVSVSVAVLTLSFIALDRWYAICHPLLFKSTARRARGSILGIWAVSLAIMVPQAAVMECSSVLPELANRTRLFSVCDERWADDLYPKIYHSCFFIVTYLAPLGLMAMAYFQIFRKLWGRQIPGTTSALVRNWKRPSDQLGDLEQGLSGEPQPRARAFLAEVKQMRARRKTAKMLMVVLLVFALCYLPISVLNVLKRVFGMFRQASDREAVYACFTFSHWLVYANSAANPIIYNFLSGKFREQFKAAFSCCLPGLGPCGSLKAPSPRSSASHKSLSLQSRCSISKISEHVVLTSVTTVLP
As to the kind of experiment: IPone accumulation assay, CHO cells expressing OX1 (antagonism of orexin A). The format is cell-based. The note with it: IPone accumulation, CHO human OX1, orexin A EC80 challenge (~20 nM); read-out: fpKb average OX1 (converted). As for the experimental part: Generation of CHO stable cell lines expressing the human OX1R and OX2R. Stable cell lines for the human OX1R and OX2R receptors were generated through the transfection of CHO cells using the transfection reagent Genejuice (Novagen number 70967) and cDNA coding for either the human OX1R or OX2R. Cells were cultured in Sigma Nutrient Mixture F-12 Ham media (catalog number N6658) supplemented with 10% heat-inactivated FBS. Forty-eight hours after transfection, cells were harvested and placed under geneticin selection by culturing in Sigma Nutrient Mixture F-12 Ham media supplemented with 10% heat-inactivated FBS and geneticin (ThermoFisher Catalog number: 10131035). Selection of the final stable clone for each receptor was made on the basis of receptor expression, assay signal to noise and robustness though increasing passage. Selected clones for the human OX1R and OX2R were then frozen down into liquid nitrogen using Cell Freezing Medium-DMSO (Sigma-Aldrich catalog number: C6164). IPone accumulation assay. A CHO cell line stably expressing either human OX1 or OX2 receptor was used with the IPone HTRF assay kit (CisBio: Part #62[…]) to measure receptor activation. The assay was optimised to measure the ability (potency; fpKb) of antagonists to reduce agonist (orexin A)-induced inositol phosphate turnover. Briefly, cells were plated onto half area 96-well white walled plates at a density of 12,500 cells/well. Sixteen hours post-plating cell growth media was replaced with antagonist concentration-response curve diluted in stimulation buffer (supplied with the kit). Cells were incubated in a humidified incubator (37° C.) for 30 min before an EC80 challenge concentration ( 20 nM (OX1) and 40 nM (OX2)) of orexin A (Tocris catalogue number 1455). After 30 min stimulation in a humidified incubator (37° C.) the assay was terminated by the addition of detection mixture as per manufacturer's instructions. The concentration of compound which reduced orexin-A stimulated turnover of inositol phosphates by 50% (IC50) was calculated by fitting to a four parameter sigmoidal dose response curve. The IC50 values were converted to fpKB values using the orexin A pEC50 value estimated on each plate as well as the challenge concentration interpolated from the orexin A control curve.
Regarding `COc1ncc(N2CCc3c(F)cccc3N(Cc3c(F)cc(Br)cc3F)C2=O)cc1C(C)(F)F` [Example 3, 1-(4-bromo-2,6-difluorobenzyl)-3-[5-(1,1-difluoroethyl)-6-methoxypyridin-3-yl]-6-fluoro-1,3,4,5-tetrahydro-2H-1,3-benzodiazepin-2-one], the Kb was 0.0501 µM. The same measure, in the same setting: to `COc1ccc(CN2C(=O)N(c3cnc(OC)c(C(C)(F)F)c3)CCc3c(F)cccc32)c(F)c1` [Example 4, 3-[5-(1,1-difluoroethyl)-6-methoxypyridin-3-yl]-6-fluoro-1-(2-fluoro-4-methoxybenzyl)-1,3,4,5-tetrahydro-2H-1,3-benzodiazepin-2-one] belongs 0.0158 µM; to `[2H]C([2H])([2H])OCc1cc(F)c(CN2C(=O)N(c3cnc(OC)c(C(C)(F)F)c3)CCc3c(F)cccc32)c(F)c1` [Example 5, 3-[5-(1,1-difluoroethyl)-6-methoxypyridin-3-yl]-1-(2,6-difluoro-4-{[(^2H3)methyloxy]methyl}benzyl)-6-fluoro-1,3,4,5-tetrahydro-2H-1,3-benzodiazepin-2-one], 0.00158 µM; to `[2H]C([2H])([2H])Oc1cc(F)c(CN2C(=O)N(c3cnc(OC)c(C(C)(F)F)c3)CCc3c(F)cccc32)c(F)c1` [Example 6, 3-[5-(1,1-difluoroethyl)-6-methoxypyridin-3-yl]-1-{2,6-difluoro-4-[(^2H3)methyloxy]benzyl}-6-fluoro-1,3,4,5-tetrahydro-2H-1,3-benzodiazepin-2-one], 0.01 µM. On the same count and under the same terms, the result for `COCc1cc(F)c(CN2C(=O)N(c3cnc(OC)c(C(C)(F)F)c3)CCc3c(F)cccc32)c(F)c1` [Example 7, 3-[5-(1,1-difluoroethyl)-6-methoxypyridin-3-yl]-1-[2,6-difluoro-4-(methoxymethyl)benzyl]-6-fluoro-1,3,4,5-tetrahydro-2H-1,3-benzodiazepin-2-one] reads 0.00794 µM; that for `COc1cc(F)c(CN2C(=O)N(c3cnc(OC)c(C(C)(F)F)c3)CCc3c(F)cccc32)c(F)c1` [Example 8, 3-[5-(1,1-difluoroethyl)-6-methoxypyridin-3-yl]-1-(2,6-difluoro-4-methoxybenzyl)-6-fluoro-1,3,4,5-tetrahydro-2H-1,3-benzodiazepin-2-one], 0.00316 µM. In the case of `COc1ncc(N2CCc3c(F)cccc3N(Cc3c(F)cc(Cl)cc3F)C2=O)cc1C(C)(F)F` [Example 9, 1-(4-chloro-2,6-difluorobenzyl)-3-[5-(1,1-difluoroethyl)-6-methoxypyridin-3-yl]-6-fluoro-1,3,4,5-tetrahydro-2H-1,3-benzodiazepin-2-one], the Kb was 0.0251 µM.

On to `COc1ncc(N2CCc3c(F)cccc3N(Cc3ccc(Br)cc3F)C2=O)cc1C(C)(F)F` [Example 10, 1-(4-bromo-2-fluorobenzyl)-3-[5-(1,1-difluoroethyl)-6-methoxypyridin-3-yl]-6-fluoro-1,3,4,5-tetrahydro-2H-1,3-benzodiazepin-2-one], for which the Kb was 0.0251 µM. With `COc1ncc(N2CCc3c(F)cccc3N(Cc3c(F)cc(Br)cc3F)C2=O)cc1S(C)(=O)=O` [Example 14, 1-(4-bromo-2,6-difluorobenzyl)-6-fluoro-3-[6-methoxy-5-(methylsulfonyl)pyridin-3-yl]-1,3,4,5-tetrahydro-2H-1,3-benzodiazepin-2-one], the Kb is 0.0794 µM. Regarding `COc1cc(F)c(CN2C(=O)N(c3cnc(OC)c(S(C)(=O)=O)c3)CCc3c(F)cccc32)c(F)c1F` [Example 15, 6-fluoro-3-[6-methoxy-5-(methylsulfonyl)pyridin-3-yl]-1-(2,3,6-trifluoro-4-methoxybenzyl)-1,3,4,5-tetrahydro-2H-1,3-benzodiazepin-2-one], the Kb was 0.126 µM. As for `COc1cc(F)c(CN2C(=O)N(c3cnc(OC)c(S(C)(=O)=O)c3)CCc3c(F)cccc32)c(F)c1` [Example 16, 1-(2,6-difluoro-4-methoxybenzyl)-6-fluoro-3-[6-methoxy-5-(methylsulfonyl)pyridin-3-yl]-1,3,4,5-tetrahydro-2H-1,3-benzodiazepin-2-one], the Kb was 0.0158 µM.

With `COc1ncc(N2CCc3c(F)cccc3N(Cc3c(C)cc(Br)cc3F)C2=O)cc1S(C)(=O)=O` [Example 17, 1-(4-bromo-2-fluoro-6-methylbenzyl)-6-fluoro-3-[6-methoxy-5-(methylsulfonyl)pyridin-3-yl]-1,3,4,5-tetrahydro-2H-1,3-benzodiazepin-2-one], the Kb was 0.01 µM.

For the compound `COc1ncc(N2CCc3c(F)cccc3N(Cc3c(C)cc(F)cc3F)C2=O)cc1S(C)(=O)=O` [Example 18, 1-(2,4-difluoro-6-methylbenzyl)-6-fluoro-3-[6-methoxy-5-(methylsulfonyl)pyridin-3-yl]-1,3,4,5-tetrahydro-2H-1,3-benzodiazepin-2-one], the Kb was 0.01 µM. Same read-out and setting: to `COc1nc(OC)c(C(C)(F)F)cc1N1CCc2c(F)cccc2N(Cc2c(F)cc(Br)cc2F)C1=O` [Example 23, 1-(4-bromo-2,6-difluorobenzyl)-3-[5-(1,1-difluoroethyl)-2,6-dimethoxypyridin-3-yl]-6-fluoro-1,3,4,5-tetrahydro-2H-1,3-benzodiazepin-2-one] belongs 0.0501 µM; to `COCc1cc(F)c(CN2C(=O)N(c3cc(C(C)(F)F)c(OC)nc3OC)CCc3c(F)cccc32)c(F)c1` [Example 24, 3-[5-(1,1-difluoroethyl)-2,6-dimethoxypyridin-3-yl]-1-[2,6-difluoro-4-(methoxymethyl)benzyl]-6-fluoro-1,3,4,5-tetrahydro-2H-1,3-benzodiazepin-2-one], 0.0631 µM; to `COc1cc(F)c(CN2C(=O)N(c3cc(S(C)(=O)=O)c(OC)nc3OC)CCc3c(F)cccc32)c(F)c1` [Example 25, 1-(2,6-difluoro-4-methoxybenzyl)-3-[2,6-dimethoxy-5-(methylsulfonyl)pyridin-3-yl]-6-fluoro-1,3,4,5-tetrahydro-2H-1,3-benzodiazepin-2-one], 0.01 µM. As for `Cc1ccc(N2CCc3c(F)cccc3N(Cc3c(F)cc(Br)cc3F)C2=O)cc1S(C)(=O)=O` [Example 27, 1-(4-bromo-2,6-difluorobenzyl)-6-fluoro-3-[4-methyl-3-(methylsulfonyl)phenyl]-1,3,4,5-tetrahydro-2H-1,3-benzodiazepin-2-one], the Kb is 0.126 µM. For `CCCc1cc(F)c(CN2C(=O)N(c3ccc(C)c(S(C)(=O)=O)c3)CCc3c(F)cccc32)c(F)c1` [Example 28, 1-(2,6-difluoro-4-propylbenzyl)-6-fluoro-3-[4-methyl-3-(methylsulfonyl)phenyl]-1,3,4,5-tetrahydro-2H-1,3-benzodiazepin-2-one], the Kb was 0.0794 µM. Consider `Cc1cc(C)c(S(C)(=O)=O)cc1N1CCc2ccccc2N(Cc2c(F)cc(Br)cc2F)C1=O` [Example 29, 1-(4-bromo-2,6-difluorobenzyl)-3-[2,4-dimethyl-5-(methylsulfonyl)phenyl]-1,3,4,5-tetrahydro-2H-1,3-benzodiazepin-2-one], for which the Kb is 0.0398 µM. As for `Cc1cc(C)c(S(C)(=O)=O)cc1N1CCc2ccccc2N(Cc2c(F)cc(OC(C)C)cc2F)C1=O` [Example 30, 1-[2,6-difluoro-4-(propan-2-yloxy)benzyl]-3-[2,4-dimethyl-5-(methylsulfonyl)phenyl]-1,3,4,5-tetrahydro-2H-1,3-benzodiazepin-2-one], the Kb was 0.0398 µM. On the same count and under the same terms, the result for `Cc1cc(C)c(S(C)(=O)=O)cc1N1CCc2c(F)cccc2N(Cc2c(F)cc(Br)cc2F)C1=O` [Example 31, 1-(4-bromo-2,6-difluorobenzyl)-3-[2,4-dimethyl-5-(methylsulfonyl)phenyl]-6-fluoro-1,3,4,5-tetrahydro-2H-1,3-benzodiazepin-2-one] reads 0.02 µM.

Still in this experiment, the particulars now being: fpKb average OX1, IPone accumulation, CHO human OX1, orexin A EC80 challenge (~20 nM).
In turn, `CSc1cc(N2CCc3c(F)cccc3N(Cc3c(F)cc(Br)cc3F)C2=O)ccc1C` [Example 26, 1-(4-bromo-2,6-difluorobenzyl)-6-fluoro-3-[4-methyl-3-(methylsulfanyl)phenyl]-1,3,4,5-tetrahydro-2H-1,3-benzodiazepin-2-one] gave a Kb of 0.0501 µM.
